Reference: patent publication US9101620B2, “Polymorph of 3-(substituteddihydroisoindolinone-2-yl)-2,6-dioxopiperidine, and pharmaceutical compositions thereof” (Nanjing Cavendish Bio-Engineering Technology Co., Ltd., priority 2009, dated 2015)

Legend:
Assay type in all cases: physicochemical
[1] = Acid destruction (0.1 mol/L HCl), related substances by HPLC; conditions: for Major impurity, peak tR4.717-4.737 / Major impurity, peak tR7.367-7.381 / Major impurity, peak tR11.067-11.100 / Total impurities generated by 0.1 mol/L acid destruction for 1 hour: 0.1 mol/L HCl, room temperature, 1 hour; for Chemical stability (in words): acid condition / 0.1 mol/L diluted HCl solution
Protocol: Acid destruction: 50 mg of sample weighted accurately was added into measuring flask of 100 mL, and 10 mL 0.1 mol/L HCl solution was added. After standing at room temperature for 1 hour, an equal amount of 0.1 mol/L NaOH solution was added for neutralization. Then the mixture was diluted with mobile phase to scale and shook to be homogeneous, and determined by HPLC.
(§1) HPLC conditions and system applicability: octadecylsilane bonded silica as the filler; 0.01 mol/L of potassium dihydrogen phosphate (adjusted to pH 3.5 by phosphoric acid)-methanol-acetonitrile (80:15:5) as the mobile phase; detection wavelength was 240 nm; the number of theoretical plates should be not less than 2000, calculated according to the peak of lenalidomide. The resolution of the peak of 3-(4-amino-1-oxo-1,3-dihydro-2H-isoindole-2-yl)-piperidine-2,6-dione from the peaks of adjacent impurities should meet requirements.
(§2) Determination method: sample was dissolved in mobile phase to be the solution containing 0.5 mg per 1 mL. 20 μL of such solution was injected into liquid chromatograph and chromatogram was recorded until fourfold the retention time of major component peak. If there were impurities peaks in the chromatogram of sample solution, total impurities and sole impurity were calculated by normalization method on the basis of peak area.

[2] = Oxidation destruction (30% H2O2), related substances by HPLC; conditions: for Major impurity, peak tR5.649-5.660 / Major impurity, peak tR10.372-10.401 / Major impurity, peak tR32.279-32.318 / Major impurity, peak tR35.063-35.098 / Total impurities generated by oxidation destruction: 30% H2O2, room temperature, 2 hour; for Chemical stability (in words): oxidating condition / oxidation destroy experiment
Protocol: Oxidation destruction: 50 mg of sample weighted accurately was added into measuring flask of 100 mL, and 10 mL 30% H2O2 was added. After standing at room temperature for 2 hour, the mixture was diluted with mobile phase to scale and shook to be homogeneous, and determined by HPLC.
as §1, §2

[3] = Destruction test: impurities in raw materials before destruction (HPLC); conditions: for Total impurities in raw materials before destruction: HPLC peak area normalization
Description: The methods of destruction experiment of the Polymorph I of this invention (hereinafter referred to as “Polymorph I”) contrasting with the Polymorph A and B of 3-(4-amino-1-oxo-1,3-dihydro-2H-isoindole-2-yl)-piperidine-2,6-dione prepared by the method in CN 1871003A (hereinafter referred to as “Polymorph A” and “polymorph B”) and results of stability are followed:
as §1, §2

Major impurity, peak tR4.717-4.737 [1] [%]	Major impurity, peak tR7.367-7.381 [1] [%]	Major impurity, peak tR11.067-11.100 [1] [%]	Total impurities generated by 0.1 mol/L acid destruction for 1 hour [1]	Chemical stability (in words) [1]	Major impurity, peak tR5.649-5.660 [2] [%]	Major impurity, peak tR10.372-10.401 [2] [%]	Major impurity, peak tR32.279-32.318 [2] [%]	Major impurity, peak tR35.063-35.098 [2] [%]	Total impurities generated by oxidation destruction [2]	Chemical stability (in words) [2]	Major impurity, peak tR5.872-5.948 [3] [%]	Major impurity, peak tR6.847-6.855 [3] [%]	Major impurity, peak tR10.961-11.165 [3] [%]	Total impurities in raw materials before destruction [3]	SMILES
0.33	0.72	0.04	impurities: 1.13%	poor chemical stability	0.39	0.08	0.08	0.14	impurities: 0.82%	poor chemical stability	0.01	0.01	0.04	impurities: 0.06%	Nc1cccc2c1CN(C1CCC(=O)NC1=O)C2=O (single isomer, unassigned) [Polymorph A, 3-(4-amino-1-oxo-1,3-dihydro-2H-isoindole-2-yl)-piperidine-2,6-dione]
0.33	0.72	0.04	impurities: 1.22%	poor chemical stability	0.36	0.11	0.10	0.13	impurities: 0.89%	poor chemical stability	0.01	0.01	0.05	impurities: 0.07%	Nc1cccc2c1CN(C1CCC(=O)NC1=O)C2=O (single isomer, unassigned) [Polymorph B, 3-(4-amino-1-oxo-1,3-dihydro-2H-isoindole-2-yl)-piperidine-2,6-dione]
